Results as given in a compilation of properties of binary mixtures (doi:10.1021/acs.jced.6b00596).

Test: xn = mol fraction of the nth substance listed
Conditions: 100 kPa

CCCCCCCCCCCCCC[P+](CCCCCC)(CCCCCC)CCCCCC.O=[N+]([O-])c1c[n-]cn1 + COCCOCCOCCOCCOC
viscosity [mPa·s]
Conditions | 278.15 K | 283.15 K | 288.15 K | 293.15 K | 298.15 K | 303.15 K | 308.15 K | 313.15 K | 318.15 K | 323.15 K
x2 = 0.189 | – | – | 726 | 522 | 384 | 290 | 222 | 173 | 138 | 111
x2 = 0.404 | 443 | 324 | 240 | 180 | 135 | – | 85 | 70 | 57 | –

CCCCCCCC[P+](CC)(CC)CC.O=[N+]([O-])c1cn[n-]c1 + COCCOCCOCCOCCOC
viscosity [mPa·s]
Conditions | 278.15 K | 283.15 K | 288.15 K | 293.15 K | 298.15 K | 303.15 K | 308.15 K | 313.15 K | 318.15 K | 323.15 K
x2 = 0 | 1340 | – | – | 398 | 282 | 207 | 155 | 119 | – | 75
x2 = 0.051 | 1010 | 666 | 452 | 317 | 229 | – | 130 | 101 | 80 | 65
x2 = 0.102 | 693 | 471 | – | 234 | 172 | 130 | 101 | 80 | 64 | 52
x2 = 0.199 | 395 | 277 | 199 | 147 | 112 | 87 | – | – | – | –
x2 = 0.3 | 229 | 166 | 123 | 94 | 73 | 58 | – | – | – | –
x2 = 0.404 | 129 | – | 74 | 59 | – | – | – | – | – | –
x2 = 0.503 | – | 60 | – | – | – | – | – | – | – | –

CCCCCC[n+]1ccn(C)c1C.O=S(=O)([N-]S(=O)(=O)C(F)(F)F)C(F)(F)F + COCCOCCOCCOCCOC
Conditions | viscosity [mPa·s]
278.15 K, x2 = 0 | 485
278.15 K, x2 = 0.102 | 370
278.15 K, x2 = 0.205 | 251
278.15 K, x2 = 0.306 | 161
278.15 K, x2 = 0.399 | 109
278.15 K, x2 = 0.499 | 70
278.15 K, x2 = 0.599 | 48
283.15 K, x2 = 0 | 335
283.15 K, x2 = 0.102 | 258
283.15 K, x2 = 0.205 | 177
283.15 K, x2 = 0.306 | 116
283.15 K, x2 = 0.399 | 81
283.15 K, x2 = 0.499 | 53
288.15 K, x2 = 0 | 236
288.15 K, x2 = 0.102 | 184
288.15 K, x2 = 0.205 | 129
288.15 K, x2 = 0.306 | 86
288.15 K, x2 = 0.399 | 61
293.15 K, x2 = 0 | 172
293.15 K, x2 = 0.205 | 96
298.15 K, x2 = 0.205 | 74
303.15 K, x2 = 0 | 99
303.15 K, x2 = 0.102 | 80
303.15 K, x2 = 0.205 | 58
308.15 K, x2 = 0 | 78
313.15 K, x2 = 0 | 63
313.15 K, x2 = 0.102 | 52

CC(=O)[O-].CCCCCCCCCCCCCC[P+](CCCCCC)(CCCCCC)CCCCCC + COCCOCCOCCOCCOC
viscosity [mPa·s]
Conditions | 278.15 K | 283.15 K | 288.15 K | 293.15 K | 298.15 K | 303.15 K | 308.15 K | 313.15 K | 318.15 K | 323.15 K
x2 = 0.103 | 1160 | 789 | – | 392 | – | 216 | 166 | – | 103 | 84
x2 = 0.207 | – | – | 332 | 244 | 184 | 142 | 112 | 89 | 73 | 60
x2 = 0.299 | 401 | 291 | 215 | 162 | 125 | 99 | 79 | 64 | 53 | –
x2 = 0.4 | 257 | 191 | – | 111 | – | 70 | 57 | – | – | –
x2 = 0.499 | – | 121 | 92 | 73 | 58 | – | – | – | – | –

COCCOCCOCCOCCOC + CCCCCC[n+]1ccn(C)c1.O=S(=O)([N-]S(=O)(=O)C(F)(F)F)C(F)(F)F
viscosity [mPa·s]
Conditions | x1 = 0.099 | x1 = 0.19 | x1 = 0.276 | x1 = 0.413 | x1 = 0.544
278.15 K | 171 | 130 | 109 | 78 | 50
283.15 K | 126 | 97 | 81 | 60 | –
288.15 K | – | 74 | 63 | – | –
293.15 K | 74 | 57 | – | – | –

CCCCCCCC[P+](CC)(CC)CC.O=[N+]([O-])c1c[n-]cn1 + COCCOCCOCCOCCOC
viscosity [mPa·s]
Conditions | 278.15 K | 283.15 K | 288.15 K | 293.15 K | 298.15 K | 303.15 K | 308.15 K | 313.15 K | 318.15 K | 323.15 K
x1 = 0.499 | 77 | 60 | – | – | – | – | – | – | – | –
x1 = 0.599 | – | 93 | 72 | 56 | – | – | – | – | – | –
x1 = 0.699 | – | 153 | – | 87 | 69 | 55 | – | – | – | –
x1 = 0.8 | 385 | 274 | 198 | 148 | 113 | 88 | 70 | 57 | – | –
x1 = 0.9 | 700 | 481 | 337 | 243 | – | 137 | 107 | 85 | 69 | 56
x1 = 1 | – | 838 | – | 398 | 286 | 212 | 160 | 124 | 98 | 78

CCCCCC[n+]1ccn(C)c1.O=S(=O)([N-]S(=O)(=O)C(F)(F)F)C(F)(F)F + COCCOCCOCCOCCOC
x2 = 0
Conditions | viscosity [mPa·s]
278.15 K | 204
283.15 K | 151
288.15 K | 115
293.15 K | 89

CCC=C[n+]1ccn(C)c1C.O=[N+]([O-])c1cn[n-]c1 + COCCOCCOCCOCCOC
viscosity [mPa·s]
Conditions | 278.15 K | 283.15 K | 288.15 K | 293.15 K | 298.15 K | 303.15 K | 308.15 K | 313.15 K | 318.15 K | 323.15 K
x1 = 0.4 | 70 | 51 | – | – | – | – | – | – | – | –
x1 = 0.5 | 139 | 97 | 70 | 53 | – | – | – | – | – | –
x1 = 0.601 | – | 176 | 121 | – | 65 | – | – | – | – | –
x1 = 0.701 | 622 | 385 | 249 | 169 | – | 89 | 69 | 53 | – | –
x1 = 0.801 | 1280 | 737 | 447 | 288 | 195 | – | 101 | 77 | 60 | –
x1 = 0.9 | 2810 | – | – | 525 | 338 | 228 | 161 | – | 89 | 70
x1 = 0.952 | – | 2200 | – | 706 | – | 289 | 204 | 140 | 104 | –

CCCC[P+](CC)(CC)CC.Cc1ncc([N+](=O)[O-])[n-]1 + COCCOCCOCCOCCOC
viscosity [mPa·s]
Conditions | 278.15 K | 283.15 K | 288.15 K | 293.15 K | 298.15 K | 303.15 K | 308.15 K | 313.15 K | 318.15 K | 323.15 K
x2 = 0.048 | – | 975 | 634 | 428 | 299 | 215 | – | 121 | 94 | 74
x2 = 0.102 | 972 | – | 421 | 291 | – | 153 | 116 | – | 71 | 57
x2 = 0.201 | 516 | 350 | 243 | 175 | – | 99 | 77 | 62 | – | –
x2 = 0.299 | 258 | 183 | 134 | 100 | 76 | 60 | – | – | – | –
x2 = 0.401 | 134 | – | 74 | 57 | – | – | – | – | – | –
x2 = 0.501 | 74 | – | – | – | – | – | – | – | – | –

CCCn1cc[n+](C)c1C.O=[N+]([O-])c1cn[n-]c1 + COCCOCCOCCOCCOC
viscosity [mPa·s]
Conditions | 278.15 K | 283.15 K | 288.15 K | 293.15 K | 298.15 K | 303.15 K | 308.15 K | 313.15 K | 318.15 K | 323.15 K
x2 = 0.05 | 5420 | 2660 | 1400 | 798 | 487 | 314 | 213 | 150 | 111 | 84
x2 = 0.1 | 3220 | – | – | 552 | 350 | 234 | 163 | 118 | 90 | 70
x2 = 0.201 | 1300 | – | – | 287 | 194 | 137 | 100 | – | 59 | –
x2 = 0.302 | 546 | 338 | 218 | 149 | 106 | 79 | 61 | – | – | –
x2 = 0.399 | – | 167 | 115 | 83 | – | – | – | – | – | –
x2 = 0.499 | 125 | – | 64 | – | – | – | – | – | – | –
x2 = 0.6 | 65 | – | – | – | – | – | – | – | – | –

CCCCCCCCCCCC[P+](CCCC)(CCCC)CCCC.c1c[n-]nn1 + COCCOCCOCCOCCOC
viscosity [mPa·s]
Conditions | x2 = 0.062 | x2 = 0.123 | x2 = 0.155 | x2 = 0.214 | x2 = 0.305 | x2 = 0.395 | x2 = 0.495 | x2 = 0.596
278.15 K | 1980 | 1230 | 907 | 671 | – | 226 | 131 | –
283.15 K | 1260 | 809 | 608 | 458 | 256 | 165 | 98 | 57
288.15 K | 824 | – | 419 | 320 | 186 | – | 75 | –
293.15 K | 557 | – | 297 | 231 | 139 | 95 | – | –
298.15 K | 389 | 276 | 218 | 171 | – | 74 | – | –
303.15 K | 280 | 203 | 164 | 130 | 84 | 59 | – | –
